Measurements from patent publication US7074807B2, “Compositions and methods for inducing cell death” (Georgetown University, priority 1998, dated 2006).

Key:
caspase-3 in DU145 cells = assay: Caspase-3 activity assay (DEVD-AFC); assay type: cell-based, human; conditions: 2.5 mM, 2 hr
Procedure: (§1) FIG. 10 illustrates the effect of tempo on caspase-3 activity in prostate cancer cell lines. Cells were treated with 2.5 mM tempo for indicated times in duplicate or triplicate as described in legend to FIG. 2. Representative data from one experiment are shown. Experiments was repeated 2–3 times.
(§2) ApoAlert CPP32 activity/caspase-3 assay kit was used to measure caspase-3 activity in cells according to manufacturer's instructions (Clontech). Briefly, after tempo treatment, cells were washed 3 times with ice-cold PBS and lysed in Clontech cell lysis buffer for 10 min on ice followed by microcentrifugation at 15,000× g for 5 min. Whole cell lysate (50 ug) was incubated for 1 h at 37° C. in caspase-3 reaction mixture containing 10 mM DTT in 2× reaction buffer, 50 uM CPP32 substrate, DEVD-AFC. The amounts of 7-amino-4 trifluoromethyl coumarin (AFC) released were detected by spectrofluorometer (Hitachi F4500) with excitation at 400 nm and emission at 505 nm.

caspase-3 in LNCaP cells = assay: Caspase-3 activity assay (DEVD-AFC); assay type: cell-based, human; conditions: 2.5 mM, 24 hr
Procedure: as §1, §2

caspase-3 in PC3 cells = assay: Caspase-3 activity assay (DEVD-AFC); assay type: cell-based, human; conditions: 2.5 mM, 24 hr
Procedure: as §1, §2

LNCaP cells = assay: Light and transmission electron microscopy of LNCaP cells; assay type: cell-based, human
Procedure: LNCaP cells ([…]) were seeded in 25 cm2 tissue culture flasks in RPMI medium containing 10% BCS overnight, followed by change to RPMI medium containing 5% BCS stimulation with 0.1% ethanol (control, 11A1, 11B1) or tempo (2.5 mM, 11A2, 11B2) for indicated times.
12A1, untreated, 4,000×; 12A2, a portion of the cell shown in 12A1, 20,000×; 12B1, 0.1% ethanol, 24 hr, 4,000×; 12B2, a portion of the cell shown in 12B1, 20,000×; 12C1, 5 mM tempo, 24 hr, 4,000×; 12C2, a portion of the cell shown in 12C1, […]; 12D, 5 mM tempo, 24 hr, a portion of another cell, 20,000×. M, mitrochondria; G, golgi apparatus; RER, rough endoplasmic reticulum; Cy, cytoplasm; N, nucleus; Arrow in panel C2 indicates swelling in the nuclear membrane.
LNCaP cells were treated with tempo as described in legend to FIG. 2. Following treatment, monolayer cells were washed three times with PBS, and fixed in 2.5% glutaraldehyde/3% paraformaldehyde in PBS. After fixation, the cell monolayer was washed in PBS. The cells were collected by gentle scraping using a rubber policeman, and centrifuged. The pellet was embedded in 1% agarose to facilitate handling. Post-fixation was performed in 1% osmium tetroxide in distilled water for 1 hr, followed by washing three times in distilled water, enbloc staining with 2% uranyl acetate for 30 min in dark, and washing three times in distilled water. […]

[1] = tested on: MDA-MB231 human breast tumor xenografts; assay: Tumor growth study, MDA-MB231 breast tumor xenografts in athymic mice; assay type: in vivo; conditions: 200 mg/kg intratumoral once daily for 8 days, vs 10% ethanol vehicle group
Procedure: FIGS. (13A), (13B1–13B2) illustrates the effects of tempo on the growth of human breast tumor xenografts in athymic mice. 13A. Tempo (200 mg/kg) was administered intratumorally once daily for a total of 8 days (*). Control group was treated simultaneously with an equal volume of ethanol (10%). Experiment was terminated when the control tumor volumes exceeded the recommended tumor burden. Each point represents mean q S.E. (n=4). […] (13B1–13B2). Representative tumor-bearing mice. Mice were treated with 10% ethanol (13B1) or tempo (13B2) as explained above.
MDA-MB231 cells (1×10^6) were inoculated subcutaneously in the right flank of 4–6 week-old female athymic mice. Tumor growth was monitored biweekly. Mice bearing tumor volumes in the range of 80–100 mm^3 were randomly selected for treatment. Tempo treatment was initiated (50 mg/kg–200 mg/kg, intratumoral, once daily, for a total of 8 days), and tumor volumes were measured for a total 25 days from the start of treatment.

[2] = Kocherginsky et al., 1995; cited from earlier work

CC1(C)CCCC(C)(C)N1[O] [tempo, 2,2,6,6-tetramethylpiperidine-N-oxyl]
level of caspase-3 activity (caspase-3 in DU145 cells): ~170% | increase in caspase activity (caspase-3 in LNCaP cells): ~12 fold | level of caspase-3 activity (caspase-3 in PC3 cells): ~200% | cell morphology at the light microscopic level (LNCaP cells; 2.5 mM): distinct change in cell morphology from spindle shaped, highly refractile appearance to a more flattened appearance | cells with pronounced vacuolation throughout the cytoplasm (LNCaP cells; electron microscopy, 5 mM, 24 hr): more than 90% | tumor growth rate [1]: significant decline in tumor growth rate | lipophilicity relative to tempol [2]: approximately 200 times
